Patent US20090318468A1, “PYRAZOLE COMPOUNDS 436” (AstraZeneca AB, priority 2008, published 2009)
pIC50: −log10 of the molar value.

Assays:
[1] = target: T1, human cytochrome P450 (CYP) 3A4 (Homo sapiens, UniProt P08684); experiment: Cytochrome P450 Inhibition Assay, CYP 3A4; format: in vitro ADME; conditions: test compound 0.1-10 μM, substrate BFC
T1 construct: made in house; host or cells: yeast (microsomal fraction)
Description: (§1) Cytochrome P450 Inhibition Assay
(§2) The inhibitory potential (IC50) of test compounds against 5 human cytochrome P450 (CYP) isoforms (1A2, 2C9, 2C19, 3A4 and 2D6) was assessed using an automated fluorescent end point in vitro assay modified from Crespi (Crespi and Stresser, J Pharmacol Toxicol Methods 2000, 44: 325-331). Microsomal subcellular fractions prepared from Yeast cell lines expressing each human CYP isoform were used as an enzyme source in this assay. The activity of the 5 major human CYPs was determined from the biotransformation of a number of coumarin substrates to fluorescent metabolites, in the presence of NADPH. […] Stock solutions of each CYP, with its respective substrate, were prepared in phosphate buffer pH 7.4 (see Table 1) and 178 μl was added to the well of a black solid, flat bottom, 300 μl 96 well microtitre plate (Corning Costar). […] The appropriate solvent controls and substrate blanks were included in each experiment to assess control activity and identify any inherent fluorescence due to the test compounds. […] The plates were read on a fluorimeter (Spectrafluor Plus) at the appropriate excitation and emission wavelengths (listed in Table 2) and the percent activity, corrected for control, was plotted against the test compound concentration.

[2] = target: T2, human cytochrome P450 (CYP) 2C9 (Homo sapiens, UniProt P11712); experiment: Cytochrome P450 Inhibition Assay, CYP 2C9; format: in vitro ADME; conditions: test compound 0.1-10 μM, substrate MFC
T2 construct: made in house; host or cells: yeast (microsomal fraction)
Description: as §1
Microsomal subcellular fractions prepared from Yeast cell lines expressing each human CYP isoform were used as an enzyme source in this assay. The activity of the 5 major human CYPs was determined from the biotransformation of a number of coumarin substrates to fluorescent metabolites, in the presence of NADPH. […] Stock solutions of each CYP, with its respective substrate, were prepared in phosphate buffer pH 7.4 (see Table 1) and 178 μl was added to the well of a black solid, flat bottom, 300 μl 96 well microtitre plate (Corning Costar). […] After pre-incubating at 37° C. for 5 min the reactions were started with addition of NADPH (20 μl, concentration shown in Table 1). The final solvent content in each incubation was <=2% (1% from the test compound and a maximum of 1% from the substrate). The appropriate solvent controls and substrate blanks were included in each experiment to assess control activity and identify any inherent fluorescence due to the test compounds. In addition, known inhibitors of each CYP were included as positive controls (see Table 3 for inhibitor concentrations and expected IC50 ranges). […] The plates were read on a fluorimeter (Spectrafluor Plus) at the appropriate excitation and emission wavelengths (listed in Table 2) and the percent activity, corrected for control, was plotted against the test compound concentration.

[3] = Protein binding by equilibrium dialysis (rat); format: in vitro ADME; conditions: 20 μM compound, 10% plasma, 37° C., read-out: % free (protein binding)
Description: Protein binding is determined by equilibrium dialysis. A 20 μM concentration of compound is dialyzed against 10% plasma at a temperature of 37° C. for 18 h. The resulting samples are analyzed using generic HPLC-UV methodology coupled with mass spectral peak identification. The reported K1 value is the first apparent association constant [proteináligand]/([protein][ligand]), all concentrations being measured in moles/liter (J. Med. Chem., 2006, 49(23), 6672-6682).
Protein binding can be measured in a high-throughput screen by equilibrium dialysis combined with liquid chromatography and mass spectrometry (Wan, H. and Rehngren, M., J. Chromatogr. A 2006, 1102, 125-134).

[4] = target: T3, human cytochrome P450 (CYP) 2D6 (Homo sapiens, UniProt P10635); experiment: Cytochrome P450 Inhibition Assay, CYP 2D6; format: in vitro ADME; conditions: test compound 0.1-10 μM, substrate MAMC
T3 construct: made in house; host or cells: yeast (microsomal fraction)
Description: as §1, §2

[5] = Clearance (pharmacokinetics) in dogs; format: in vivo; conditions: dog, whole blood, dose 0.927 mg/kg (2 umol/kg); for Vd: read-out: Vss
Description: For the dog dose of 0.927 mg/kg (2 umol/kg), the compounds were formulated in 10% DMSO:90% hydroxyl-propyl-β-cyclodextrin (25% w/v) in sorensens buffer pH 5 at 2 umol/ml. Each formulation was dosed (1 mL/kg) to a male and female dog (8-15 kg) which had been fasted overnight. Blood samples were taken via the jugular vein at 5, 10, 20 and 40 minutes, and 1, 2, 4, 6, 12 and 24 hours post dose. The blood samples were diluted 1:1 with water prior to anaylsis.
(§3) A set of 10 calibration standards covering the concentration range (0.001 umol/L to 10 umol/L) were prepared by spiking blank matrix (1:1 blood:water). The samples and standards were extracted using a solid phase extraction plate, blown down under nitrogen, and then reconstituted in methanol:water (20:80). The samples were analysed using LC-MSMS and the results obtained were used to determine the area under the curve from time 0 to infinity [AUC0-inf (ug.hr/ml)], clearance [Cl (ml/min/kg)] and the steady state volume distribution [Vss (L/kg)] for each compound.

[6] = Clearance (pharmacokinetics) in rats; format: in vivo; conditions: rat, whole blood, male rats, dose 0.927 mg/kg (2 umol/kg); for Vd: read-out: Vss
Description: For the rat dose of 0.927 mg/kg (2 umol/kg), the compounds were formulated in 20% DMA:80% sorensens buffer pH 5 at 1 umol/ml. Each formulation was dosed (2 mL/kg) to four male rats (250-300 g) which had free access to food. Blood samples were taken via the tail vein at 5 and 20 minutes, and 1 and 4 hours post dose from 2 rats, and at 10 and 40 minutes, and 2 and 6 hours from the other 2 rats. Terminal samples were taken at 12 hours from the first pair of rats and 24 hours from the second pair. The blood samples were diluted 1:1 with water prior to analysis.
as §3

T2 sequence (P11712 whole entry): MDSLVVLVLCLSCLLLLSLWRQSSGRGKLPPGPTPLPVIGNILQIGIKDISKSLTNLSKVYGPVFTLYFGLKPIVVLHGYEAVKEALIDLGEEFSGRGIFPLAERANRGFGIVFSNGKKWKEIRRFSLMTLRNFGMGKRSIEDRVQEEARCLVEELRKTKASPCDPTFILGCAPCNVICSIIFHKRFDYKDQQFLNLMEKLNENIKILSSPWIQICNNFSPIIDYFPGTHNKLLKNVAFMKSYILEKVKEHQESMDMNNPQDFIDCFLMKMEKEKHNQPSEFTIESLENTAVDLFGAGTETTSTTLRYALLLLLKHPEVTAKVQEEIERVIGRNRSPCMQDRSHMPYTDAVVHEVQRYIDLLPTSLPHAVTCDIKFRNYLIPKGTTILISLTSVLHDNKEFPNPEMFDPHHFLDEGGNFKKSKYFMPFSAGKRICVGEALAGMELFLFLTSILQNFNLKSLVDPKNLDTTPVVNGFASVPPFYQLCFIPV
T1 sequence (P08684 whole entry): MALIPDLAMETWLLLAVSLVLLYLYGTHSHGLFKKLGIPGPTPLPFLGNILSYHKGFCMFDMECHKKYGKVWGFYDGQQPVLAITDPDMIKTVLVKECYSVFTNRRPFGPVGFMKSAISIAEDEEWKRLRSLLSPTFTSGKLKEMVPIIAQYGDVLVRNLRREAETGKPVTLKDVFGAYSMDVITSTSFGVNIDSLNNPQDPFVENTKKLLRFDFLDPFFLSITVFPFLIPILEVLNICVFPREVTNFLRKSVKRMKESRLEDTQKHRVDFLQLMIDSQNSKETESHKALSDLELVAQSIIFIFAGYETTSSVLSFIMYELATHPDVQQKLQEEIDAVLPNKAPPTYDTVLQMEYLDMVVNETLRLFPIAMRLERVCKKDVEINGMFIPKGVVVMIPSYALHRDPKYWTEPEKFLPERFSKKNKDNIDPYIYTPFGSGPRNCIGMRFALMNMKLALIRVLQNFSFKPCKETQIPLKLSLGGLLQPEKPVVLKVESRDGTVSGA
T3 sequence (P10635 whole entry): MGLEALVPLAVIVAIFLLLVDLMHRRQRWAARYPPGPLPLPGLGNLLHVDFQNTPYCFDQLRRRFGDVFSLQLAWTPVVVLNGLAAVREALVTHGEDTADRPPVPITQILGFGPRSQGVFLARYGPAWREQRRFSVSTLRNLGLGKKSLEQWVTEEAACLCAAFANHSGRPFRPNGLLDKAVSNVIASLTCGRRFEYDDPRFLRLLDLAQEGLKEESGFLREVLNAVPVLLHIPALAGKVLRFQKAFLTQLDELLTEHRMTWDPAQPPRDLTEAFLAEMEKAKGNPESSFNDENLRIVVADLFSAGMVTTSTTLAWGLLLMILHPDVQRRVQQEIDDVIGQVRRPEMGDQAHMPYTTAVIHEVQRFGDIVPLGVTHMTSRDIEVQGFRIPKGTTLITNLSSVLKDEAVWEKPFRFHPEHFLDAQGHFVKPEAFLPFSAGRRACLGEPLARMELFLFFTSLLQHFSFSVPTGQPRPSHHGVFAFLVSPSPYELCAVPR

pIC50 [1]	pIC50 [2]	fraction unbound at 18 h, 20 μM [3]	pIC50 [4]	AUC(0-inf) ([5]; female dogs)	clearance ([5]; female dogs)	Vd ([5]; female dogs)	AUC(0-inf) ([5]; male dogs)	clearance ([5]; male dogs)	Vd ([5]; male dogs)	AUC(0-inf) [6]	clearance [6]	Vd [6]	SMILES
< 5.00	5.04	0.0062	< 5.00	1350 ng·h/mL	11.5 mL/min/kg	1.71 L/kg	1240 ng·h/mL	12.5 mL/min/kg	6.55 L/kg	473 ng·h/mL	32.7 mL/min/kg	1.74 L/kg	COc1cc(CCc2cc(NC(=O)c3ccc(N4CCN(C)[C@H](C)C4)cc3)[nH]n2)cc(OC)c1 [Example 1b, (R)—N-(3-(3,5-Dimethoxyphenethyl)-1H-pyrazol-5-yl)-4-(3,4-dimethylpiperazin-1-yl)benzamide]
5.53	5.42	0.0091	< 5.00	427 ng·h/mL	36.2 mL/min/kg	7.08 L/kg	585 ng·h/mL	26.4 mL/min/kg	3.71 L/kg	254 ng·h/mL	60.9 mL/min/kg	2.58 L/kg	COc1cc(CCc2cc(NC(=O)c3ccc(N4CCN(C)[C@@H](C)C4)cc3)[nH]n2)cc(OC)c1 [Example 1a, (S)—N-(3-(3,5-Dimethoxyphenethyl)-1H-pyrazol-5-yl)-4-(3,4-dimethylpiperazin-1-yl)benzamide]
